# Values of other authors, collected in publication PMC5111556 (Organic & biomolecular chemistry, 2016).
# System: αvβ3
substance,measurement,value
Cilengitide,αvβ3-targeted antiangiogenic therapy (in words),initial promise
